In US20090149482A1, “STEREOCHEMICALLY DEFINED DIPEPTIDE ESTERS OF ANTIVIRAL AGENTS FOR ENHANCED OCULAR TREATMENT” (priority 2001, published 2009):
Like-named read-outs stand apart in the source and are kept apart here.

How the values were obtained:
EBV = test: In vitro antiviral screening, VCA Elisa; type: cell-based, epstein-barr virus; conditions: for EC50: EBV, VCA Elisa
HSV-1 strain McKrae = test: HSV-1 epithelial keratitis rabbit model, topical treatment, SLE scores; type: in vivo; conditions: 14 days post-inoculation, 1% topical 5 times per day
Source text: (§1) The rabbit eye is an excellent model to study acute HSV-1 epithelial keratitis. Also, spontaneous and induced ocular HSV-1 shedding and corneal epithelial disease in rabbits has been used as a model of human ocular HSV-1 reactivation and recurrence. HSV-1 strain McKrae was used in studies for epithelial keratitis. HSV-1 strain RE was used for studies of HSV stromal keratitis.
i) Epithelial Keratitis: A group of ten rabbits was used to study each compound. Both eyes of all rabbits were used. An aqueous vehicle (like a placebo) and one positive control were obtained using 1% TFT (Viroptic®). Each compound at 1% concentration (TFT=33 mM, Gly-Gly-ACV=26.6 mM, Val-Val-ACV=18.6 mM) were applied (50 μl) topically 5 times per day every two hours starting at 8:00 a.m. and ending at 4:00 p.m. The treatment began on the 3rd post-inoculation day and continued for 5 consecutive days. Slit-lamp examinations were performed once every day for 8 days and thereafter once every other day until lesions resolved.

HSV-1 strain RE = test: HSV-1 stromal keratitis rabbit model, topical treatment, SLE scores; type: in vivo; conditions: 13 days post-inoculation, 1% topical
Source text: as §1
ii) Stromal Keratitis: The experiment is similar to the part (i) experiment as far as the treatment cycles for all experimental drugs (TFT and Val-Val-ACV) are concerned. The effect of Val-Val-ACV on stromal keratitis induced by intrastromal injection with a high (20 μl of a 1×10^7 pfu/ml stock) titer of HSV-1RE strain was compared to that of TFT. Each compound at 1% concentration (TFT=33 mM, Val-Val-ACV=18.6 mM) was applied topically. The same scoring as noted in Table 4 is used for stromal keratitis. Emphasis is placed on the stromal edema and visibility into the aqueous chamber and the visualization of the pupil and iris.
A group of ten rabbits were used to study each compound. Both eyes of all rabbits were treated. Three to four groups of 10 rabbits are used in one experiment. This includes vehicle control, TFT, and the newly synthesized antiviral Val-Val-ACV.

[1] = system: human fibroblast foreskin cells (HFF)
[2] = rabbits, i.v. infusion, aqueous humor
[3] = system: oligopeptide transporter on the rabbit cornea
[4] = rat, in vivo, po
physchem = conditions: buffer, pH 5.6
in vitro [5] = conditions: human
in vitro [6] = conditions: human, Caco-2, pH 7.4
in vitro [7] = conditions: human; remark: listed apart in the source
in vitro [8] = conditions: male, New Zealand albino, rabbit, tissue homogenate

Q: For CC(C)C(N)C(=O)NC(C(=O)OCCOCn1cnc2c(=O)[nH]c(N)nc21)C(C)C (stereo not drawn) [Val-Val-ACV, Val-Valacyclovir], which EC50 (EBV) is on record?
A: 93.1 µM

Q: And the “Concentration required to achieve an SLE Score of 0.3” value (HSV-1 strain McKrae)?
A: 18.6 mM

Q: What about the “Concentration required to achieve an SLE Score of 0.2” value (HSV-1 strain RE) of the same compound?
A: 18.6 mM

Q: What about the CC50 ([1]; EBV column) of the same compound?
A: > 93.1 µM

Q: And the CC50 ([1]; HCMV column)?
A: > 186 µM

Q: And the CC50 ([1]; HSV-2 column)?
A: > 186 µM

Q: And the CC50 ([1]; VZV column)?
A: > 186 µM

Q: What about the CC50 ([1]; read-out: CC50 (concentration required to inhibit cell proliferation by 50%), HSV-1) of the same compound?
A: > 186 µM

Q: What about the “MRT(aqueous)” value [2] of the same compound?
A: *188.39 min

Q: And the “Papp (% Control) of [3H] Val-ACV” value [3]?
A: 18.6 (±8.9) % Control

Q: And the “amino acid intermediate metabolite after oral administration” value [4]?
A: no intact amino acid intermediate metabolite VACV could be detected

Q: Which results are given for CC(C)[C@H](N)C(=O)OCCOCn1cnc2c(=O)[nH]c(N)nc21 [Val-ACV, L-Valine-acyclovir]?
A: SI (Selectivity Index) = CC50/EC50 (EBV): SI > 250; EC50 (EBV; human gammaherpesvirus 4): 0.55 µM; inhibition in transport in presence of Gly-Sar (Caco-2 monolayers): 47 % inhibition; Papp (% Control) of [3H] Val-ACV [3]: 20.1 (±6.7) % Control; half-life (physchem): ~3 days; CC50 (in vitro [5]; CC50 (concentration required to inhibit cell proliferation by 50%), HSV-1): > 277 µM; CC50 (in vitro [5]; CC50, EBV column): > 138 µM; CC50 (in vitro [5]; CC50, HCMV column): > 277 µM; CC50 (in vitro [5]; CC50, HSV-2 column): > 277 µM; CC50 (in vitro [5]; CC50, VZV column): > 100 µM; half-life (in vitro [6]): 124 ± 8.3 min; Papp (in vitro [7]; Caco-2, pH 6): 3.01 ± 0.21 ×10⁻⁶ cm/s; Papp (in vitro [7]; Caco-2, pH 7.4): 5.67 ± 1.13 ×10⁻⁶ cm/s; half-life (in vitro [8]; corneal half-life, corneal tissue): 85.2 min; half-life (in vitro [8]; t1/2 of conversion to ACV, corneal tissue homogenate): ~85 min
